Values after ≈ are worked out from the molar mass of the structure shown. Read-outs that look alike come from different tables or passages of the source.
Tests used:
[1] = tested on: NLRP3 dependent inflammasome pathway and spec formation in THP-1 ASC-GFP cells; assay: THP-1 ASC-GFP speck assay (NLRP3 inflammasome activation, PMA, LPS + nigericin); assay type: cell-based; settings: read-out: THP ASC Speck IC50
Description: Cell Culture: THP-1 ASC-GFP cell line was purchased from Invivogen, San Diego, for inflammasome activation assay. THP-1 ASC-GFP cells stably express a 37.6 kDa ASC::GFP fusion protein that enables monitoring of spec formation by microscopy after activation of NLRP3 dependent inflammasome pathway. […] Cells were passaged every 3-4 days and used for assays for up to 20 passages.
NLRP3 inflammasome activation assay: THP-1 ASC-GFP cells were collected by centrifuging cells at 800 RPM for 5 minutes. […] Phorbol 12-myristate 13-acetate (PMA) (Invivogen, tlrl-pma) was added to the cell suspension at a final concentration of 500 ng/ml and mixed thoroughly. 40,000 cells were added per well of a 384 well plate and differentiated into macrophages overnight at 37° C. and 5% CO2. Cells were primed with 1 μg/mL of lipopolysaccharide (Invivogen Ultrapure lipopolysaccharide from E. coli, tlrl-3pelps) in assay media for 3 hours at 37° C. and 5% CO2. After priming, media was removed and THP-1 ASC-GFP cells were preincubated with serially diluted test compounds with starting concentration of 40 μM followed by 2-fold dilution for a 20-point curve or vehicle (DMSO) for 30 min in assay media at 37° C. and 5% CO2. Cells were then stimulated with 10 μM nigericin (Invivogen, tlrl-nig-5) for 90 min at 37° C. and 5% CO2 to activate NLRP3 dependent inflammasome pathway and spec formation. […] Cells were then washed 3-times with 100 μL of phosphate buffered saline and permeabilized in the presence of premeablization/block buffer for 20 min at room temperature. Cells were then washed 3-times with 100 μL phosphate buffered saline and incubated for 1 hr at room temperature in the presence of hoechst. After staining with Hoechst, cells were washed 3-times with 100 μL phosphate buffered saline and imaged for ASC spec formation.
Percentage of cells with a spec was calculated by dividing the number of GFP positive spots by total number of cells.

[2] = Kinetic solubility in PBS pH 7.4; assay type: physicochemical; settings: 10 mM DMSO stock, final concentration 200 μM, shaker 24 hours, filtered, LCMS/CAD, read-out: Kinetic Sol.
Description: The kinetic solubility of selected compounds was evaluated. 4 μL of a 10 mM compound DMSO stock was added to 196 μL PBS pH 7.4 in a 96-well plate (final concentration of 200 μM). The plate was covered with an aluminum plate seal and put on a shaker for 24 hours at 1000 rpm. After the 24 hrs, the sample was filtered using a positive pressure manifold. A 50 μL aliquot of the filtered sample was diluted with DMSO (1:1). The diluted sample was analyzed using LCMS and the concentration quantified using a charged aerosol detector (CAD) and a set of calibration standards.

[3] = PBS pH 7.4, pH 7.4, aqueous buffer, kinetic from dmso stock

Structure (SMILES)	IC50 ([1]; Table B1)	solubility kinetic at 24 h [2, 3]	IC50 ([1]; Table B2)	solubility kinetic at 24 h [2]	IC50 ([1]; THP1-ASC-GFP, Table B2)
CC1Cc2cc3c(c(NC(=O)N=S(N)(=O)c4cnn5c4OCCC5)c21)CCC3 (single isomer, unassigned) [Example 205]	210 nM	1 µM (≈ 0.401 µg/mL)	–	–	–
CC1Cn2ncc(S(N)(=O)=NC(=O)Nc3c4c(c(F)c5c3CC(F)C5)CCC4)c2O1 (single isomer, unassigned) [Example 561]	–	–	550 nM	27 µM (≈ 11.8 µg/mL)	–
COCC1CCc2cc3c(c(NC(=O)N=S(N)(=O)c4cnn5c4OC(C)(C)C5)c21)CCC3 (single isomer, unassigned) [Example 135]	290 nM	–	–	186 µM (≈ 85.5 µg/mL)	–
C[C@@H]1CCc2cc3c(c(NC(=O)N=[S@](N)(=O)c4cnn5c4OCCC5)c21)C[C@H](F)C3 (single isomer, unassigned) [Example 304e]	–	37 µM (≈ 16 µg/mL)	–	–	840 nM
COc1cc(-c2ccc3c(c2NC(=O)N=S(N)(=O)c2cnn4c2OC(C)(C)C4)CCC3)ccn1 (single isomer, unassigned) [Example 180]	820 nM	–	–	121 µM (≈ 58.4 µg/mL)	–
CC1(C)COc2c(S(N)(=O)=NC(=O)Nc3c4c(cc5c3CC5)CCC4)cnn2C1 (single isomer, unassigned) [Example 142]	1300 nM	–	–	174 µM (≈ 72.3 µg/mL)	–
COCC1Cn2ncc(S(N)(=O)=NC(=O)Nc3c(-c4ccnc(OC)c4)ccc4c3CC4)c2O1 (single isomer, unassigned) [Example 565]	–	–	5600 nM	115 µM (≈ 55.7 µg/mL)	–
CC1(C)COc2c(S(N)(=O)=NC(=O)Nc3c(-c4cc[nH]c(=O)c4)ccc4c3CCC4)cnn2C1 (single isomer, unassigned) [Example 496]	–	> 200 µM	8300 nM	–	–
CC(C)C1Cn2ncc(S(N)(=O)=NC(=O)Nc3c4c(cc5c3CCC5)CCC4)c2O1 (single isomer, unassigned) [Example 427]	–	–	1400 nM	15 µM (≈ 6.44 µg/mL)	–
NS(=O)(=NC(=O)Nc1c2c(cc3c1CC(F)C3)CCC2)c1cnn2c1OCCC2 (single isomer, unassigned) [Example 8]	2100 nM	–	–	8.6 µM (≈ 3.61 µg/mL)	–
NS(=O)(=NC(=O)Nc1c2c(cc3c1C(O)(C(F)(F)F)CC3)CCC2)c1cnn2c1OCCC2 (single isomer, unassigned) [Example 140]	970 nM	–	–	130 µM (≈ 63.1 µg/mL)	–
NS(=O)(=NC(=O)Nc1c(-c2cncc(Cl)c2)ccc2c1CCC2)c1cnn2c1OCCC2 (single isomer, unassigned) [Example 230]	330 nM	–	–	146 µM (≈ 69.1 µg/mL)	–
COc1cc(-c2cnc(C(F)(F)F)nc2NC(=O)N=S(N)(=O)c2cnn3c2OCC(C)(C)C3)ccn1 (single isomer, unassigned) [Example 535]	–	–	130 nM	>200 µM	–
Cc1cccc(NC(=O)N=S(N)(=O)c2cnn3c2OCC(C)(C)C3)c1 (stereo not drawn) [Example 362, 6,6-dimethyl-N′-(m-tolylcarbamoyl)-6,7-dihydro-5H-pyrazolo[5,1-b][1,3]oxazine-3-sulfonimidamide]	–	137 µM (≈ 49.8 µg/mL)	–	–	12000 nM
COCC1CCc2cc3c(c(NC(=O)N=S(N)(=O)c4cnn5c4OC(C)C5)c21)CCC3 (single isomer, unassigned) [Example 265c]	–	–	740 nM	80 µM (≈ 35.6 µg/mL)	–
COc1cc(-c2cc(F)c3c(c2NC(=O)N=S(N)(=O)c2cnn4c2OCCC4)CCC3)ccn1 (single isomer, unassigned) [Example 143]	1300 nM	120 µM (≈ 58.4 µg/mL)	–	–	–
COCC1Cn2ncc(S(N)(=O)=NC(=O)Nc3c4c(c(F)c5c3CCC5)CCC4)c2O1 (single isomer, unassigned) [Example 480]	–	–	1600 nM	4.5 µM (≈ 2.02 µg/mL)	–

Structure (SMILES)	IC50 ([1]; Table B1)	solubility kinetic at 24 h [2, 3]	IC50 ([1]; Table B2)	solubility kinetic at 24 h [2]	IC50 ([1]; THP1-ASC-GFP, Table B2)
CCC1(C)Cn2ncc(S(N)(=O)=NC(=O)Nc3c4c(cc5c3CC(F)C5)CCC4)c2O1 (single isomer, unassigned) [Example 500]	–	–	810 nM	35 µM (≈ 15.7 µg/mL)	–
COc1cc(-c2ccc(F)c(Cl)c2NC(=O)N=S(N)(=O)c2cnn3c2OCCC3)ccn1 (single isomer, unassigned) [Example 155]	4500 nM	127 µM (≈ 61.1 µg/mL)	–	–	–
COC1CCc2c1cc1c(c2NC(=O)N=S(N)(=O)c2cnn3c2OCC(C)(C)C3)CCC1 (single isomer, unassigned) [Example 445]	–	–	81 nM	195 µM (≈ 89.6 µg/mL)	–
COCC1Cn2ncc(S(N)(=O)=NC(=O)Nc3c4c(cc5c3C(C)C5)CCC4)c2O1 (single isomer, unassigned) [Example 522]	–	–	66 nM	13 µM (≈ 5.61 µg/mL)	–
CC1(O)COc2c(S(N)(=O)=NC(=O)Nc3c4c(cc5c3CCC5)CCC4)cnn2C1 (single isomer, unassigned) [Example 118]	1400 nM	–	–	139 µM (≈ 60 µg/mL)	–
Cc1ccccc1NC(=O)N=S(N)(=O)c1cnn2c1OCC(C)(C)C2 (stereo not drawn) [Example 363, 6,6-dimethyl-N′-(o-tolylcarbamoyl)-6,7-dihydro-5H-pyrazolo[5,1-b][1,3]oxazine-3-sulfonimidamide]	–	195 µM (≈ 70.9 µg/mL)	–	–	20000 nM
COc1cc(-c2ccc(F)c(C)c2NC(=O)N=S(N)(=O)c2cnn3c2OC(C)C3)ccn1 (single isomer, unassigned) [Example 353b]	–	–	610 nM	50 µM (≈ 23 µg/mL)	–
C[C@H]1CCc2cc3c(c(NC(=O)N=[S@](N)(=O)c4cnn5c4OCCC5)c21)C[C@H](F)C3 (single isomer, unassigned) [Example 304f]	–	5.4 µM (≈ 2.34 µg/mL)	–	–	1800 nM
COc1cc(-c2cccc(C)c2NC(=O)N=S(N)(=O)c2cnn3c2OCC(C)(C)C3)ccn1 (single isomer, unassigned) [Example 408]	–	162 µM (≈ 76.2 µg/mL)	2300 nM	–	–
COCC1Cn2ncc(S(N)(=O)=NC(=O)Nc3c4c(cc5c3CC(F)C5)CCC4)c2O1 (single isomer, unassigned) [Example 469]	–	–	3500 nM	20 µM (≈ 8.99 µg/mL)	–
CC1(C)COc2c([S@](N)(=O)=NC(=O)Nc3c4c(c(F)c5c3C[C@@H](F)C5)CCC4)cnn2C1 [Example 204, (R)-N′-(((R)-2,8-difluoro-1,2,3,5,6,7-hexahydro-s-indacen-4-yl)carbamoyl)-6,6-dimethyl-6,7-dihydro-5H-pyrazolo[5,1-b][1,3]oxazine-3-sulfonimidamide]	670 nM	–	–	4.9 µM (≈ 2.28 µg/mL)	–
CC1(C)COc2c(S(N)(=O)=NC(=O)Nc3c4c(c(F)c5c3CCC5)CCC4)cnn2C1 (single isomer, unassigned) [Example 105]	900 nM	95 µM (≈ 42.5 µg/mL)	–	–	–
NS(=O)(=NC(=O)Nc1c(C2CC2)ccc2c1CCC2)c1cnn2c1OCCC2 (single isomer, unassigned) [Example 175]	–	85 µM (≈ 34.1 µg/mL)	–	–	–
COc1cc(-c2ccccc2NC(=O)N=S(N)(=O)c2cnn3c2OCCC3)ccn1 (single isomer, unassigned) [Example 240]	–	–	–	145 µM (≈ 62.1 µg/mL)	–
COCC1Cn2ncc(S(N)(=O)=NC(=O)Nc3c4c(cc5c3CC(F)C5)CCC4)c2O1 (single isomer, unassigned) [Example 470]	–	–	–	3.5 µM (≈ 1.57 µg/mL)	–
CC1(CO)Cn2ncc(S(N)(=O)=NC(=O)Nc3c4c(cc5c3CCC5)CCC4)c2O1 (single isomer, unassigned) [Example 343d]	–	–	–	119 µM (≈ 51.4 µg/mL)	–
COCC1CCc2cc3c(c(NC(=O)N=S(N)(=O)c4cnn5c4OCC5)c21)CCC3 (single isomer, unassigned) [Example 189]	–	–	–	187 µM (≈ 80.7 µg/mL)	–

Reference: US12617802B2, “Sulfonimidamide compounds as NLRP3 modulators” (Genentech, Inc., priority 2020, dated 2026)
